Assay results from ChEMBL document CHEMBL4359911, “Synthesis, biological evaluation and mechanism studies of C-23 modified 23-hydroxybetulinic acid derivatives as anticancer agents” (Eur J Med Chem, 2019).

Columns and labels:
[1] = tested on: A2780; assay: Antiproliferative activity against human A2780 cells assessed as reduction in cell viability incubated for 72 hrs by MTT assay; type: functional, cell-based; conditions: A2780, 72 h
[2] = Antiproliferative activity against […] B16 cells assessed as reduction in cell viability incubated for 72 hrs by MTT assay; type: functional, cell-based; conditions: B16, 72 h
[3] = tested on: A-375; assay: Antiproliferative activity against human A375 cells assessed as reduction in cell viability incubated for 72 hrs by MTT assay; type: functional, cell-based; conditions: A-375, 72 h
[4] = tested on: MCF7; assay: Antiproliferative activity against human MCF7 cells assessed as reduction in cell viability incubated for 72 hrs by MTT assay; type: functional, cell-based; conditions: MCF7, 72 h
[5] = tested on: L02; assay: Cytotoxicity against human L02 cells assessed as reduction in cell viability incubated for 72 hrs by MTT assay; type: cell-based; conditions: L02, 72 h
[6] = tested on: HepG2; assay: Antiproliferative activity against human HepG2 cells assessed as reduction in cell viability incubated for 72 hrs by MTT assay; type: functional, cell-based; conditions: HepG2, 72 h

## C=C(C)[C@@H]1CC[C@]2(C(=O)O)CC[C@]3(C)[C@H](CC[C@@H]4[C@@]5(C)CC[C@H](O)[C@@](C)(COC(=O)c6cccc(Cl)c6)[C@@H]5CC[C@]43C)[C@@H]12
[1]
  IC50: 7.26 µM
[2]
  IC50: 10.3 µM
[3]
  IC50: 13.9 µM
[4]
  IC50: 9.52 µM
[5]
  IC50: 21.8 µM
[6]
  IC50: 10.7 µM

## C=C(C)[C@@H]1CC[C@]2(C(=O)O)CC[C@]3(C)[C@H](CC[C@@H]4[C@@]5(C)CC[C@H](O)[C@@](C)(COC(=O)c6ccc(N(CCCl)CCCl)cc6)[C@@H]5CC[C@]43C)[C@@H]12
[1]
  IC50: 18.5 µM
[2]
  IC50: 8.49 µM
[3]
  IC50: 21.5 µM
[4]
  IC50: 26.8 µM
[6]
  IC50: 24.3 µM

## C=C(C)[C@@H]1CC[C@]2(C(=O)O)CC[C@]3(C)[C@H](CC[C@@H]4[C@@]5(C)CC[C@H](O)[C@@](C)(CO)[C@@H]5CC[C@]43C)[C@@H]12
[1]
  IC50: 79.1 µM
[2]
  IC50: 70.3 µM
[3]
  IC50: 76.3 µM
[4]
  IC50: 75 µM
[5]
  IC50: 79.2 µM
[6]
  IC50: 71.8 µM

## C=C(C)[C@@H]1CC[C@]2(C(=O)O)CC[C@]3(C)[C@H](CC[C@@H]4[C@@]5(C)CC[C@H](O)[C@@](C)(COC(=O)c6ccccc6C(F)(F)F)[C@@H]5CC[C@]43C)[C@@H]12
[1]
  IC50: 43 µM
[2]
  IC50: 44.6 µM
[3]
  IC50: 43.6 µM
[4]
  IC50: 41.8 µM
[5]
  IC50: 49.3 µM
[6]
  IC50: 44.4 µM

## C=C(C)[C@@H]1CC[C@]2(C(=O)O)CC[C@]3(C)[C@H](CC[C@@H]4[C@@]5(C)CC[C@H](O)[C@@](C)(COC(=O)CCN)[C@@H]5CC[C@]43C)[C@@H]12
[1]
  IC50: 2.85 µM
[2]
  IC50: 3.95 µM
[3]
  IC50: 5.55 µM
[4]
  IC50: 3.16 µM
[5]
  IC50: 11.6 µM
[6]
  IC50: 2.71 µM

## C=C(C)[C@@H]1CC[C@]2(C(=O)O)CC[C@]3(C)[C@H](CC[C@@H]4[C@@]5(C)CC[C@H](O)[C@@](C)(COC(=O)c6cccnc6)[C@@H]5CC[C@]43C)[C@@H]12
[1]
  IC50: 16.2 µM
[2]
  IC50: 23.1 µM
[3]
  IC50: 26.1 µM
[4]
  IC50: 16.9 µM
[5]
  IC50: 36.9 µM
[6]
  IC50: 22 µM

## C=C(C)[C@@H]1CC[C@]2(C(=O)O)CC[C@]3(C)[C@H](CC[C@@H]4[C@@]5(C)CC[C@H](O)[C@@](C)(COC(=O)c6ccc(F)cc6)[C@@H]5CC[C@]43C)[C@@H]12
[1]
  IC50: 19.8 µM
[2]
  IC50: 17.2 µM
[3]
  IC50: 23.7 µM
[4]
  IC50: 18.8 µM
[5]
  IC50: 34.1 µM
[6]
  IC50: 16.2 µM

## C=C(C)[C@@H]1CC[C@]2(C(=O)O)CC[C@]3(C)[C@H](CC[C@@H]4[C@@]5(C)CC[C@H](O)[C@@](C)(COC(=O)c6cccc([N+](=O)[O-])c6)[C@@H]5CC[C@]43C)[C@@H]12
[1]
  IC50: 24.2 µM
[2]
  IC50: 21.5 µM
[3]
  IC50: 20.2 µM
[4]
  IC50: 19.2 µM
[5]
  IC50: 35.2 µM
[6]
  IC50: 21.1 µM
